Laboratory results as given in US20190092720A1, “FUNCTIONALIZED BENZAMIDE DERIVATIVES AS ANTIVIRAL AGENTS AGAINST HBV INFECTION” (BARUCH S. BLUMBERG INSTITUTE, priority 2012, published 2019).

Tests used:
Format in all cases: cell-based, Hepatitis B virus (HBV)
HBV mRNA = assay: Intracellular viral RNA by Northern blot in AML12HBV10 cells; details: 2 days, FIG. 1 panel A
Protocol: (§1) FIG. 1. Antiviral mechanism of the compounds of the present invention. AML12HBV10 cells were left untreated (NT) or treated with the indicated concentrations of the compounds of the disclosure Compound 6 and Compound 19, respectively, for 2 days. Bay-4109 (3 µM) or AT-61 (25 µM) served as positive controls. (A) Intracellular viral RNA was determined by Northern blot hybridization. Ribosomal RNA served as a loading control. (B) The total amounts of nucleocapsids were determined by a particle gel assay. (C) Encapsidated pgRNA were extracted and measured by Northern blot. (D) Nucleocapsid-associated HBV DNA was quantified by alkaline-treatment of nucleocapsids on the membrane following the particle gel assay and hybridized with a HBV-specific riboprobe. (E) HBV DNA replication intermediates were extracted and determined by Southern blot hybridizations.
Procedure for analysis of HBV mRNA: Upon the completion of treatment, total cellular RNA was extracted with TRIzol reagents (Invitrogen). Five micrograms of total RNA was resolved in 1.5% agarose gel containing 2.2 M formadelhyde and transferred onto Hybond-XL membrane in 20×SSC buffer. The amounts of HBV mRNA were determined by Northern blot hybridization with an alpha-^32P-UTP labeled riboprobe specific for plus strand of HBV genome.

[1] = tested on: capsid-associated HBV DNA; assay: Capsid-associated HBV DNA and DNA replication intermediates in AML12HBV10 cells; details: 2 days, FIG. 1 panels D and E
Protocol: as §1
Procedures of viral capsids and nucleocapsid-associated DNA analysis: AML12HB10 cells were lysed by addition of 300 μl buffer containing 10 mM Tris-HCl (pH7.6), 100 mM NaCl, 1 mM EDTA and 0.1% NP-40 to each well of 12-well plate. Cell debries were removed by centrifugation at 5000 g for 10 minutes. Ten microliters of the clarified cell lysates were fractionated by electrophoresis through nondenaturing 1% agarose gels and transferred to a nitrocellulose filter by blotting with TNE buffer (10 mM Tris-HCl, pH7.6; 150 mM NaCl and 1 mM EDTA). HBV capsids were detected by probing the membrane with an antibody against HBV core protein (DAKO). […] To detect capsid associated HBV DNA, the membrane were treated with buffer containing 0.5N NaOH and 1.5 M NaCl for 5 minutes and followed by neutralization with buffer containing 1 M TRIS-HCl and 1.5M NaCl for 5 minutes. The viral DNA was detected by hybridization with a α-^32P-UTP (800 Ci/mmol, Perkin Elmer) labeled minus strand specific full-length HBV riboprobe (Xu et al.).
To analyze the HBV DNA replication intermediates, cells were lysed by adding into each well of the 12-well plates 0.5 ml of lysis buffer containing 10 mM Tris-HCl (pH 8.0), 1 mM EDTA, 1% NP40 and 2% sucrose and incubating at 37° C. for 10 minutes. Cell debris and nuclei were removed by centrifugation and the supernatant was mixed with 130 μl of 35% polyethylene glycol (PEG) 8000 containing 1.5 M NaCl. After 1 hour incubation in ice, viral nucleocapsids were pelleted by centrifugation at 6,000×g for 5 minutes at 4° C., followed by 1 hour digestion at 37° C. in 400 μl of digestion buffer containing 0.5 mg/ml pronase (Calbiochem), 0.5% SDS, 150 mM NaCl, 25 mM Tris-HCl (pH 8.0) and 10 mM EDTA. The digestion mixture was extracted twice with phenol and DNA was precipitated with ethanol, dissolved in TE buffer (10 mM Tris-HCl, pH 8.0; 0.1 mM EDTA). […]

[2] = tested on: HBV replication in AML12HBV10 cells; assay: Antiviral efficacy in AML12HBV10 cells (HBV DNA dot-blot hybridization); details: Hepatitis B virus, AML12HBV10, 48 h, read-out: AML12HBV10 EC50, concentration that reduces the amount of HBV DNA by 50%, serial dilution 50 μM to 0.39 μM
Protocol: The HBV replication inhibitors of the present invention are capable of treating and preventing diseases associated with HBV infection.
The antiviral efficacy of the compounds of the disclosure, as presented in Table 1, were determined in AML12HBV10 cells. AML12HBV10 is an immortalized murine hepatocyte (AML12)-derived stable cell line that supports robust HBV replication in a tetracycline inducible manner (Xu et al.). The cells were seeded into 96 well plates at a density of 2×10^4 cells per well and cultured in DMEM/F12 media with 10% fetal bovine serum in the absence of tetracycline to allow pgRNA transcription and HBV DNA replication. One day after seeding, cells were left untreated or treated with a serial dilution of testing compounds, ranging from 50 μM to 0.39 μM, for 48 hours. Cells were then lysed by adding into each well of 100 μl lysis buffer containing 10 mM Tris-HCl (pH 7.6), 1 mM EDTA, 100 mM NaCl and 1% NP-40 and incubated at 37° C. for 30 minutes. Half amount (50 μl) of cell lysate from each well was combined with equal volume of denaturing solution containing 0.5N NaOH and 1.5M NaCl. After 5 minute incubation, 100 µl of neutralization solution (1M Tris-HCl, pH 7.4, 1.5M NaCl) was added into each well. The denatured cell lysates (totally 200 μl) were applied onto Nylon membrane using 96-well dot-blot manifold (Biorad). HBV DNA in the cell lysates were determined by dot-blot hybridization with alpha-^32P-UTP-labelled riboprobe specific for HBV minus strand DNA. The antiviral efficacy of a compound of the disclosure was expressed as the concentration that reduces the amount of HBV DNA by 50% (EC50).

Structure (SMILES): O=C(Nc1cccc(Cl)c1)c1scc2c1OCCO2 [Entry 6]
- amount of viral mRNA (HBV mRNA): did not affect
- capsid-associated HBV DNA / DNA synthesis [1]: reduced encapsidated pgRNA and capsid-associated HBV DNA in a dose-dependent manner
- EC50 [2]: 400 nM
